Experimental data taken from publication PMC12947280, “An Antifungal with a Novel Mechanism of Action Discovered via Resistance Gene-Guided Genome Mining” (ACS Central Science, 2026).
≈ marks a conversion by molar mass, not a printed value. Like-named read-outs stand apart in the source and are kept apart here.

Columns and labels:
Test in all cases: Antifungal screening, broth microdilution MIC
Assay type in all cases: cell-based
[1] = tested on: Aspergillus terreus ATCC MYA-3628; conditions: for MIC: Aspergillus terreus ATCC MYA-3628
Description: (§1) Antifungal screening of 1
(§2) Antifungal screening was performed by Micromyx, LLC (Kalamazoo, Michigan, USA). Test organisms were either reference strains from the American Type Culture Collection (ATCC; Manassas, VA), the Centers for Disease Control and Prevention (CDC; Atlanta, GA), or clinical isolates from the Micromyx (MMX) collection. Upon receipt at Micromyx, the isolates were streaked under suitable conditions onto agar medium appropriate to each organism. The yeast isolates were incubated for 24 hr at 35 °C and the fungi were incubated for 7 to 13 days at 35 °C, as appropriate. Colonies harvested from these growth plates were resuspended in the appropriate medium containing a cryoprotectant. Aliquots of each suspension were then frozen […]
(§3) Prior to testing, the yeast isolates were streaked from frozen vials onto Sabouraud Dextrose Agar (SAB; Becton Dickenson [BD]/BBL; Sparks, MD, Lot No. 2228660) and were incubated at 35°C for 24 hr. Additional fungal isolates were streaked from frozen vials onto potato dextrose agar (BD/BBL; Sparks, MD, Lot No. 2046481) and incubated under optimal conditions for […]
(§4) All MIC measurements were performed in RPMI1640 from Hyclone Laboratories (Logan, UT;
(§5) Cat. No. SH3001104; Lot No. AC10257966A) buffered with MOPS to pH-7 from Millipore […]
(§6) MIC values were determined using a broth microdilution procedure described by CLSI. 5,6.
(§7) Automated liquid handlers (Multidrop 384, Labsystems, Helsinki, Finland; Biomek 3000 and […]
(§8) Biomek FX, Beckman Coulter Fullerton CA) were used to conduct serial dilutions and liquid […]
(§9) Solutions of 1 were added in an 11 point 2x serial dilution in DMSO with a maximum tested concentration of 32 μg/ml in the culture medium. Drug solution was added at 1% v/v into 200 μl […]
(§10) A standardized inoculum of each test organism was prepared in appropriate media per CLSI methods.5,6 The plates were then inoculated with 10 µL of the diluted inoculum using the Biomek 3000 from low to high drug concentration, resulting in a final concentration of approximately 0.5 to 2.5 x 10^3 CFU/mL for yeast and 0.2 to 2.5 x 10^4 CFU/mL for the other fungi. An un-inoculated plate was incubated for the purpose of assessing solubility of the drug […]
(§11) The plates were stacked 3 to 4 high, covered with a sterile lid on the top plate, and incubated aerobically at 35 °C for 24, 48, and 72 h. For yeast, both the MIC based on complete inhibition and 50% inhibition were reported at 24 and 48 h. For other fungal isolates, the MIC values were recorded at 24 and 48 hr and were based on complete inhibition and 50% inhibition.
(§12) Intact protein LCMS analysis
(§13) 10 μM of recombinant S. cerevisiae ALS was incubated with 10 μM compound 1 in buffer (50 mM Tris pH 7.5, 100 mM KCl, 10 uM FAD, 1 mM TPP, 10 mM MgCl2 (with 2.5% DMSO from compound)) at 22 °C for 30 min. Unreacted 1 was removed by passing the reaction mixture through a 30 kDa MWCO filter (Millipore). The collected protein was then denatured and reduced by incubation with 6 M urea and 10 mM DTT at 37 °C for 1 h followed by 20 mM iodoacetamide alkylation for 30 min in dark. This reaction mixture then underwent buffer exchange into 100 mM Tris-HCl pH 8.0 and 10 mM CaCl2 buffer using a 30 kDa MWCO filter.
(§14) The protein was then incubated with sequencing grade chymotrypsin (Promega) (15:1,w/w) for […]
(§15) After digestion, the peptide mixture was immediately analysed by LC-MS/MS using a Waters I-class UPLC equipped with an ACQUITY UPLC BEH C18 column (2.1x50 mm, 1.7 µm, Waters) at 50 °C coupled to a Waters Synapt G2Si MS. The sample was injected and subjected to an LC gradient starting from 0.5% mobile phase B (ACN with 0.1% formic acid) for 5 min with linear increase to 40% B over 35 min. Mobile phase A was 0.1% formic acid water. Flow rate was maintained at 0.3 ml/min. MS/MS data was acquired in positive ionization mode with data dependent MS/MS acquisition. Peptide mapping was performed with PEAKs Studio 8.0 (Bioinformatics Solutions Inc.) followed by manual review to identify peptides putatively modified by covalent addition of 1. […]

[2] = tested on: Rhizopus oryzae ATCC 11886; conditions: for MIC: Rhizopus arrhizus, ATCC11886, Rhizopus oryzae ATCC 11886
Description: as §1, §2, §3, §4, §5, §6, §7, §8, §9, §10, §11, §12, §13, §14, §15

[3] = tested on: Aspergillus niger ATCC 9508; conditions: for MIC: ATCC9508, Aspergillus niger ATCC 9508
Description: as §1, §2, §3, §4, §5, §6, §7, §8, §9, §10, §11, §12, §13, §14, §15

[4] = tested on: Scedosporium prolificans ATCC 11274; conditions: for MIC: Lomentospora prolificans, ATCC11274, Scedosporium prolificans ATCC 11274
Description: as §1, §2, §3, §4, §5, §6, §7, §8, §9, §10, §11, §12, §13, §14, §15

[5] = tested on: Mucor circinelloides ATCC 24905; conditions: for MIC: ATCC24905, Mucor circinelloides ATCC 24905
Description: as §1, §2, §3, §4, §5, §6, §7, §8, §9, §10, §11, §12, §13, §14, §15

[6] = tested on: Fusarium solani ATCC MYA-3636; conditions: for MIC: Fusarium solani ATCC MYA-3636
Description: as §1, §2, §3, §4, §5, §6, §7, §8, §9, §10, §11, §12, §13, §14, §15

[7] = 24 hr, read-out: MIC 100% growth inhibition
[8] = 24 hr, read-out: MIC >50% growth inhibition
[9] = 48 hr, read-out: MIC 100% growth inhibition
[10] = 48 hr, read-out: MIC >50% growth inhibition

SMILES: CCCC1C(C)=CC2CC=CC3(C)C2C1C(=O)C31C(=O)NC(CCCO)C1=O (stereo not drawn) [compound 1]
- MIC [1, 7]: > 32 µg/mL
- MIC [1, 8]: > 32 µg/mL
- MIC [1, 9]: > 32 µg/mL
- MIC [1, 10]: > 32 µg/mL
- MIC (Table S5) ([1]; Aspergillus terreus, species summary): > 32
- MIC [2, 7]: 1 µg/mL (≈ 2.59 µM)
- MIC [2, 8]: 0.5 µg/mL (≈ 1.3 µM)
- MIC [2, 9]: 16 µg/mL (≈ 41.5 µM)
- MIC [2, 10]: 8 µg/mL (≈ 20.8 µM)
- MIC (Table S5) ([2]; Rhizopus oryzae, species summary): 1
- MIC [3, 7]: 2 µg/mL (≈ 5.19 µM)
- MIC [3, 8]: 1 µg/mL (≈ 2.59 µM)
- MIC [3, 9]: 32 µg/mL (≈ 83 µM)
- MIC [3, 10]: 8 µg/mL (≈ 20.8 µM)
- MIC (Table S5) ([3]; Aspergillus niger, species summary): 2
- MIC [4, 7]: 8 µg/mL (≈ 20.8 µM)
- MIC [4, 8]: 2 µg/mL (≈ 5.19 µM)
- MIC [4, 9]: > 32 µg/mL
- MIC [4, 10]: > 32 µg/mL
- MIC (Table S5) ([4]; Scedosporium prolificans, species summary): 8
- MIC [5, 7]: 0.5 µg/mL (≈ 1.3 µM)
- MIC [5, 8]: 0.12 µg/mL (≈ 0.311 µM)
- MIC [5, 9]: 16 µg/mL (≈ 41.5 µM)
- MIC [5, 10]: 4 µg/mL (≈ 10.4 µM)
- MIC (Table S5) ([5]; Mucor circinelloides, species summary): 0.5
- MIC [6, 7]: > 32 µg/mL
- MIC [6, 8]: > 32 µg/mL
- MIC [6, 9]: > 32 µg/mL
- MIC [6, 10]: > 32 µg/mL
- MIC (Table S5) ([6]; Fusarium solani, species summary): > 32
